# Biological target: T1, histamine 3 receptor (H3R) (Homo sapiens, UniProt Q9Y5N1)
# T1 construct: expressed in transfected cells; host or cells: CHO cells (HR3-CHO cell line), membranes
# Test: Competition binding assay with 3H-(R)α-methylhistamine on membranes of the human HR3-CHO cell line
# Details: membrane of human HR3-CHO cell line; 3H(R)α-Methylhistamine 1 nM; Ki calculated from IC50 by Cheng-Prusoff equation
# Description: Binding Assay with ^3H-(R)α-methylhistamine
# Saturation binding experiments were performed using HR3-CHO membranes prepared as described in Takahashi, K, Tokita, S., Kotani, H. (2003) J. Pharmacol. Exp. Therapeutics 307, 213-218.
# An appropriate amount of membrane (60 to 80 μg protein/well) was incubated with increasing concentrations of ^3H(R)α-Methylhistamine di-hydrochloride (0.10 to 10 nM). Non specific binding was determined using a 200 fold excess of cold (R)α-Methylhistamine dihydrobromide (500 nM final concentration). The incubation was carried out at room temperature (in deep-well plates shaking for three hours). The final volume in each well was 250 μl. The incubation was followed by rapid filtration on GF/B filters (pre-soaked with 100 μl of 0.5% PEI in Tris 50 mM shaking at 200 rpm for two hours). The filtration was made using a cell-harvester and the filter plates were then washed five times with ice cold washing buffer containing 0.5 M NaCl. After harvesting, the plates were dried at 55° C. for 60 min, then we added scintillation fluid (Microscint 40, 40 microl in each well) and the amount of radioactivity on the filter was determined in Packard top-counter after shaking the plates for two hours at 200 rpm at room temperature.
# Binding Buffer: 50 mM Tris-HCl pH 7.4 and 5 mM MgCl2×6H2O pH 7.4. Washing Buffer: 50 mM Tris-HCl pH 7.4 and 5 mM MgCl2×6H2O and 0.5 M NaCl pH 7.4.
# Indirect measurement of affinity of H3R inverse agonists: twelve increasing concentrations (ranging from 10 μM to 0.3 nM) of the selected compounds were always tested in competition binding experiments using membrane of the human HR3-CHO cell line. An appropriate amount of protein, e.g. approximately 500 cpm binding of RAMH at Kd, were incubated for 1 hour at room temperature in 250 μl final volume in 96-well plates in presence of ^3H(R)α-Methylhistamine (1 nM final concentration=Kd). Non-specific binding was determined using a 200 fold excess of cold (R)α-Methylhistamine dihydrobromide.
# All compounds were tested at a single concentration in duplicates.
# T1 sequence (Q9Y5N1 whole entry): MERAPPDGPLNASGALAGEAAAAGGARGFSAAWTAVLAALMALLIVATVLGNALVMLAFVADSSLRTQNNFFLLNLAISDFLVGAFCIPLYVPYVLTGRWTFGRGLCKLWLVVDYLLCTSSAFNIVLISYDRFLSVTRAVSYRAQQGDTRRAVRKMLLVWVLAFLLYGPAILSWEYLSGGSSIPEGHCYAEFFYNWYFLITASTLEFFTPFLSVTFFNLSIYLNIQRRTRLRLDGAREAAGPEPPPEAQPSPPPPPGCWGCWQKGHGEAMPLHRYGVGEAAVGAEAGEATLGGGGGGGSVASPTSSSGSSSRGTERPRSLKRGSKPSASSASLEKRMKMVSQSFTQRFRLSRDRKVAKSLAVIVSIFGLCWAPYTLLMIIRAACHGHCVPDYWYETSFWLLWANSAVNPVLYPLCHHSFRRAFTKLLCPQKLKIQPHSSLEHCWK
row,Structure (SMILES),Ki
1,"CC(C)N1CCC(Oc2cnc3[nH]c(C(=O)N4CCC(F)(F)CC4)cc3c2)CC1 [Example 13, (4,4-Difluoro-piperidin-1-yl)-[5-(1-isopropyl-piperidin-4-yloxy)-1H-pyrrolo[2,3-b]pyridin-2-yl]-methanone]",28.9 nM
2,"CC(C)N1CCC(Oc2cnc3c(c2)cc(C(=O)N2CCC(F)(F)CC2)n3C(C)C)CC1 [Example 22, (4,4-Difluoro-piperidin-1-yl)-[1-isopropyl-5-(1-isopropyl-piperidin-4-yloxy)-1H-pyrrolo[2,3-b]pyridin-2-yl]-methanone]",9.4 nM
3,"O=C(c1cc2cc(OCCCN3CCCC3)cnc2[nH]1)N1CCOCC1 [Example 5, Morpholin-4-yl-[5-(3-pyrrolidin-1-yl-propoxy)-1H-pyrrolo[2,3-b]pyridin-2-yl]-methanone]",25.5 nM

# Source: patent publication US7622466B2, “Azaindole-2-carboxamide derivatives” (Hoffman-La Roche Inc., priority 2005, dated 2009)
